Data from ChEMBL document CHEMBL4028801, “A multifactorial approach to hepatobiliary transporter assessment enables improved therapeutic compound development” (Toxicol Sci, 2013).
Counter-ions that a name gives are not always drawn.

Assays:
[1] = target: Bile salt export pump (Homo sapiens, UniProt O95342); experiment: Inhibition of human BSEP overexpressed in Sf9 cell membrane vesicles assessed as uptake of [3H]-taurocholate in presence of ATP measured after 15 to 20 mins by membrane vesicle transport assay; format: ADME, cell-based
[2] = target: ATP-binding cassette sub-family C member 2 (Homo sapiens, UniProt Q92887); experiment: Inhibition of human MRP2 overexpressed in Sf9 cell membrane vesicles assessed as uptake of [3H]-estradiol-17beta-D-glucuronide in presence of ATP and GSH measured after 20 mins by membrane vesicle transport assay
[3] = target: ATP-binding cassette sub-family C member 3 (Homo sapiens, UniProt O15438); experiment: Inhibition of human MRP3 overexpressed in Sf9 insect cell membrane vesicles assessed as uptake of [3H]-estradiol-17beta-D-glucuronide in presence of ATP and GSH measured after 10 mins by membrane vesicle transport assay; format: ADME, cell-based
[4] = target: T1, ATP-binding cassette sub-family C member 4 (Homo sapiens, UniProt O15439); experiment: Inhibition of human MRP4 overexpressed in Sf9 cell membrane vesicles assessed as uptake of [3H]-estradiol-17beta-D-glucuronide in presence of ATP and GSH measured after 20 mins by membrane vesicle transport assay; format: ADME, cell-based
T1 sequence (O15439 whole entry): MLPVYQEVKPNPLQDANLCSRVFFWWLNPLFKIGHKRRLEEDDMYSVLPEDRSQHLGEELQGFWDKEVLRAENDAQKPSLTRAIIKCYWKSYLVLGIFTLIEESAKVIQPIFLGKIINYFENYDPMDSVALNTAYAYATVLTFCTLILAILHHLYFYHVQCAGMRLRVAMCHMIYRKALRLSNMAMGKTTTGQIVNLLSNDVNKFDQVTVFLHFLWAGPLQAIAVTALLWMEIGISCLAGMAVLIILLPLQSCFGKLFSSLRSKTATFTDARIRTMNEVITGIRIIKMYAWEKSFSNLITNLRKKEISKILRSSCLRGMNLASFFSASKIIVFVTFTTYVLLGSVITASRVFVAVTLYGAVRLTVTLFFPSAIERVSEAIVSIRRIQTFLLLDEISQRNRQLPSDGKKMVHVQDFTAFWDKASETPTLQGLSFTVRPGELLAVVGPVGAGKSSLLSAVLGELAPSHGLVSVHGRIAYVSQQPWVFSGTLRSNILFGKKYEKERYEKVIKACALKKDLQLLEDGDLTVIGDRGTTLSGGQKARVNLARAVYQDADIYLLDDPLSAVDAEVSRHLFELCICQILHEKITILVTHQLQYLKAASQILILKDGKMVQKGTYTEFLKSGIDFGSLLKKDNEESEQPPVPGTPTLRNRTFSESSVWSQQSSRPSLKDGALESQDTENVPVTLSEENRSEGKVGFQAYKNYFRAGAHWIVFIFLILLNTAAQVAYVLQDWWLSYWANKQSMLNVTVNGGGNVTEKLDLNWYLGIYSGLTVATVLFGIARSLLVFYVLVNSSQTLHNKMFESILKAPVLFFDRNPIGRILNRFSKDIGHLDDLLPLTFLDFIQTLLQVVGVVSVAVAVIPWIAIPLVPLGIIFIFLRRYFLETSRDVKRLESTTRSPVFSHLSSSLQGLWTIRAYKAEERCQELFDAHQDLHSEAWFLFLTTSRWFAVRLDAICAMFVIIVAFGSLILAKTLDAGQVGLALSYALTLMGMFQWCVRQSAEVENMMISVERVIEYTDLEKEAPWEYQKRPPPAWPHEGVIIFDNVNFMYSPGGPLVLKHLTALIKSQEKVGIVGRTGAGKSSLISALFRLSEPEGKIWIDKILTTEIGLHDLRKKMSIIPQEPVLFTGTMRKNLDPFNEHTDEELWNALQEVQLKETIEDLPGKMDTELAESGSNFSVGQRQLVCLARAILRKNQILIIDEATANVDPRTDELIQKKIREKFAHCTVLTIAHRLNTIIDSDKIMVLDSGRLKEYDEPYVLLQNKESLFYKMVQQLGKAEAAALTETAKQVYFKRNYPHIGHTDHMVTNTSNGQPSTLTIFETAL

Bile salt export pump, sequence (O95342 whole entry): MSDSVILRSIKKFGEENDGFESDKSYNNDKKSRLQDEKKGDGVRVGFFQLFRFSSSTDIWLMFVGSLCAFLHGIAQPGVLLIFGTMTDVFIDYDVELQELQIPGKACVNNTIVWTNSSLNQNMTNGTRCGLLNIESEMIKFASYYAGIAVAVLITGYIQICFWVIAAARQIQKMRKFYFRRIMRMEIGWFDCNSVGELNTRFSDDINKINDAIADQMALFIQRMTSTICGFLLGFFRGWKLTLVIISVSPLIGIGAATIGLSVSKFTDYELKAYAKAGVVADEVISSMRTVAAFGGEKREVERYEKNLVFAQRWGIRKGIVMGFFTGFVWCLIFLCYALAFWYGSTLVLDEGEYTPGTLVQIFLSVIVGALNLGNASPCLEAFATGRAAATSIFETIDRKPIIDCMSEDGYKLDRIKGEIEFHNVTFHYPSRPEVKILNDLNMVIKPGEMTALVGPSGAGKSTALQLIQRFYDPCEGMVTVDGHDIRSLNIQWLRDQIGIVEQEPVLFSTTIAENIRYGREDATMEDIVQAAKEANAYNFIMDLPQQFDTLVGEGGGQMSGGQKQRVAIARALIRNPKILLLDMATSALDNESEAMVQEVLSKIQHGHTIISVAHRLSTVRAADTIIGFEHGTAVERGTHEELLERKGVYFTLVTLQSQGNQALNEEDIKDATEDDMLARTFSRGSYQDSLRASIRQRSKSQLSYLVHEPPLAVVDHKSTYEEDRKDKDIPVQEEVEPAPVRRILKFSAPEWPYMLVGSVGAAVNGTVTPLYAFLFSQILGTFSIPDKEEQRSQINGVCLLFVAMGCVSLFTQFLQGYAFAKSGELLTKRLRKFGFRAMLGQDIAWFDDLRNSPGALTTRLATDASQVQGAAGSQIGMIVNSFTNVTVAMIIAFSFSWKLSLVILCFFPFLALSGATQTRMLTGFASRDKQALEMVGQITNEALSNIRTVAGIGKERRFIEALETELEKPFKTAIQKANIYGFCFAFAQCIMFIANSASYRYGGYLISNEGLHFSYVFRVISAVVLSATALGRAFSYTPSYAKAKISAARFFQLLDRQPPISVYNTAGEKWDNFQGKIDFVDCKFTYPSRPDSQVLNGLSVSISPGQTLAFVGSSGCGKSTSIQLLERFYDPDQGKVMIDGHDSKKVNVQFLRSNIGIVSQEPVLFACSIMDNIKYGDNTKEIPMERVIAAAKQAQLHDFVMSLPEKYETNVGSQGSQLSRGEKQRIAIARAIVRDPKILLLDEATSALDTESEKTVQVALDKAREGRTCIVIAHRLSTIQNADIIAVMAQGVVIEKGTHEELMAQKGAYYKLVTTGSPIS
ATP-binding cassette sub-family C member 2, sequence (Q92887 whole entry): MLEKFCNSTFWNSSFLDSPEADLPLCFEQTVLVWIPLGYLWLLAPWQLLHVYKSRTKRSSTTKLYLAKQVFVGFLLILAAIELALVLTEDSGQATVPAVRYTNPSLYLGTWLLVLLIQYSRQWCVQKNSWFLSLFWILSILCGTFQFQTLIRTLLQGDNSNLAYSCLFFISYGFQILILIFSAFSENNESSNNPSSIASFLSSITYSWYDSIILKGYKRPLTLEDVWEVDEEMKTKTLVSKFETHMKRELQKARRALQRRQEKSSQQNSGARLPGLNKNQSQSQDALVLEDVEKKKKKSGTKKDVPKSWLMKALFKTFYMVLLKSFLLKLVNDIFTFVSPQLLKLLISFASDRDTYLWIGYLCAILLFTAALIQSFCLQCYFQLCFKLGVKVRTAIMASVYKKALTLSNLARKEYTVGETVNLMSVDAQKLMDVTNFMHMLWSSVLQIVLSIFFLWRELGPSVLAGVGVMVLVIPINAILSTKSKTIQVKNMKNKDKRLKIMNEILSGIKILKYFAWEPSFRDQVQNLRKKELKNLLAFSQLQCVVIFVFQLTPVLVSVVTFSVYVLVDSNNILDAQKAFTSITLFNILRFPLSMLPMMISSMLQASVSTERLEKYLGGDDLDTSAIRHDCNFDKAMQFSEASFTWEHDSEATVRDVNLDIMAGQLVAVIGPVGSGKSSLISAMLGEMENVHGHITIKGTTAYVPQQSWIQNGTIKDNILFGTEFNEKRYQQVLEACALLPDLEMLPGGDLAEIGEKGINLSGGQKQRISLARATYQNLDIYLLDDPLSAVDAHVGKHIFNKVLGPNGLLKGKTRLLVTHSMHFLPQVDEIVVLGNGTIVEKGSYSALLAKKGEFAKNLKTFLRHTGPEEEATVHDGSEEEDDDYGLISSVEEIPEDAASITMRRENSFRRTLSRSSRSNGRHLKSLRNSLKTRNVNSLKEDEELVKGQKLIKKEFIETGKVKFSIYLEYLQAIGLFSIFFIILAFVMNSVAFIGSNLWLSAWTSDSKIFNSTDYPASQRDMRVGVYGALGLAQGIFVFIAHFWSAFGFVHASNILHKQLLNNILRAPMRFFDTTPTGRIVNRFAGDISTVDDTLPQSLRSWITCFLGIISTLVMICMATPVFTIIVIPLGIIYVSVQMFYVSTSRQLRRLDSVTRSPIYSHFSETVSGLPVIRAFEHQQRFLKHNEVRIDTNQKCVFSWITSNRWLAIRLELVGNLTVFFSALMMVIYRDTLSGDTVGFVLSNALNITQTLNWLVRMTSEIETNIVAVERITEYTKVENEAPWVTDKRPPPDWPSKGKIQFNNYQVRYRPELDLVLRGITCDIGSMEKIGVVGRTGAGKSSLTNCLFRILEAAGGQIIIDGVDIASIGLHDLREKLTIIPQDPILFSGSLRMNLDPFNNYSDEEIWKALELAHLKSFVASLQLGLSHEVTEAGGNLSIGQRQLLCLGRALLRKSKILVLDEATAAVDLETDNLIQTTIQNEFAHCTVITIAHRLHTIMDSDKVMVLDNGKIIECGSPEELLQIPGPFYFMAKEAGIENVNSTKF
ATP-binding cassette sub-family C member 3, sequence (O15438 whole entry): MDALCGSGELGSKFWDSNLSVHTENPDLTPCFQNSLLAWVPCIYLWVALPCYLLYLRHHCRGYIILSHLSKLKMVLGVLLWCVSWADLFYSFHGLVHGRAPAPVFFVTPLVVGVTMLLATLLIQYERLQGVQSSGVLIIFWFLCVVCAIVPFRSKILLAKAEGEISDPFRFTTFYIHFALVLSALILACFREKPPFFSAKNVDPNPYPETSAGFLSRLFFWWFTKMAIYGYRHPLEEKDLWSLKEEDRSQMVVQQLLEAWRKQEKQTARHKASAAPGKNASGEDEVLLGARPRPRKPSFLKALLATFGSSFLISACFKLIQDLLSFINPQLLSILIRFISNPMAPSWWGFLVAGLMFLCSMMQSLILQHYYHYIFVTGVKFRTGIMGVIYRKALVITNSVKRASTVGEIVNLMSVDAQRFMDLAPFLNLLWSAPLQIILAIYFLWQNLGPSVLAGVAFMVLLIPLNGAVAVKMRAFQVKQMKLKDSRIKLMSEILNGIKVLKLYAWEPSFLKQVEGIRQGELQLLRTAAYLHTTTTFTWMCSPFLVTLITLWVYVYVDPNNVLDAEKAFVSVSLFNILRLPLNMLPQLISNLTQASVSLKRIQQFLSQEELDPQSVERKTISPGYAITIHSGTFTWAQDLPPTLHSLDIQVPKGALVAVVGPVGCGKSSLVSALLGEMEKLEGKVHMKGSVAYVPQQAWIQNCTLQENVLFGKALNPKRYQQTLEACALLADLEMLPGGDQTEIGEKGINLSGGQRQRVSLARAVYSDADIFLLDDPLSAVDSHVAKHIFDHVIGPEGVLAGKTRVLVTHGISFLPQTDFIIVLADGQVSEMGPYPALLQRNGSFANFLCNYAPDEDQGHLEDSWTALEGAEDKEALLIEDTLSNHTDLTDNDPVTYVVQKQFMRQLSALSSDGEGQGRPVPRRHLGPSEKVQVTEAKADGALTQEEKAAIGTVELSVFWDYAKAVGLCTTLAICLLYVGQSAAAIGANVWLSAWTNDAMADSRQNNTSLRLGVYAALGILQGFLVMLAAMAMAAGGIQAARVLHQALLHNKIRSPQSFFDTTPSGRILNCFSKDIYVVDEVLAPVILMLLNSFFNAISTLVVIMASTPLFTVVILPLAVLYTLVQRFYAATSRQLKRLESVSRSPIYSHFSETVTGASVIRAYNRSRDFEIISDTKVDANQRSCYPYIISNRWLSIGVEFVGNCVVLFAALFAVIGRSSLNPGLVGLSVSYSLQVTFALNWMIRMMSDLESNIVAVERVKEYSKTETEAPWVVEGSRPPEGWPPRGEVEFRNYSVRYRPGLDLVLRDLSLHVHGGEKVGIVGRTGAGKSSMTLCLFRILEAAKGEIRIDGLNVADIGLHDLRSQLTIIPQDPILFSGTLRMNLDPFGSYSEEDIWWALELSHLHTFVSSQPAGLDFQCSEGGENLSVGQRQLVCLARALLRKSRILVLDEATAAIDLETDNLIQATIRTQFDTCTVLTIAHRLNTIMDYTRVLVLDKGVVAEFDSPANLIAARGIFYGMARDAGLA

| SMILES | IC50 [1] | IC50 [2] | IC50 [3] | IC50 [4] |
| --- | --- | --- | --- | --- |
| Cc1ccc(-c2nc3ccc(C)cn3c2CC(=O)N(C)C)cc1 | > 133 µM | > 133 µM | > 133 µM | > 133 µM |
| NNC(=O)c1ccncc1 [ISONIAZID] | > 133 µM | > 133 µM | > 133 µM | > 133 µM |
| NC[C@H]1O[C@H](O[C@H]2[C@H](O)[C@@H](O[C@H]3O[C@H](CO)[C@@H](O)[C@H](N)[C@H]3O)[C@H](N)C[C@@H]2N)[C@H](N)C[C@@H]1O [TOBRAMYCIN] | > 133 µM | > 133 µM | > 133 µM | > 133 µM |
| CC[C@H]1OC(=O)[C@H](C)[C@@H](O[C@H]2C[C@@](C)(OC)[C@@H](O)[C@H](C)O2)[C@H](C)[C@@H](O[C@@H]2O[C@H](C)C[C@H](N(C)C)[C@H]2O)[C@](C)(O)C[C@@H](C)CN(C)[C@H](C)[C@@H](O)[C@]1(C)O [AZITHROMYCIN] | > 133 µM | > 133 µM | > 133 µM | > 133 µM |
| Cc1ncc([N+](=O)[O-])n1CC(O)CCl (centres undefined) [ORNIDAZOLE] | > 133 µM | > 133 µM | > 133 µM | > 133 µM |
| CNCCC=C1c2ccccc2CCc2ccccc21 [NORTRIPTYLINE] | > 133 µM | > 133 µM | > 133 µM | > 133 µM |
| CN1CC(=O)N2[C@H](c3ccc4c(c3)OCO4)c3[nH]c4ccccc4c3C[C@@H]2C1=O | > 133 µM | > 133 µM | > 133 µM | > 133 µM |
| CCOC(=O)C1=C(COCCN)NC(C)=C(C(=O)OC)C1c1ccccc1Cl (centres undefined) [AMLODIPINE] | > 133 µM | > 133 µM | > 133 µM | > 133 µM |
| C[C@]12CC[C@@H]3c4ccc(O)cc4C[C@@H](CCCCCCCCC[S+]([O-])CCCC(F)(F)C(F)(F)F)[C@H]3[C@@H]1CC[C@@H]2O (some centres undefined) [FULVESTRANT] | > 133 µM | > 133 µM | > 133 µM | > 133 µM |
| C[C@H]1COc2c(N3CCN(C)CC3)c(F)cc3c(=O)c(C(=O)O)cn1c23 [LEVOFLOXACIN] | > 133 µM | > 133 µM | > 133 µM | > 133 µM |
| CC1Cc2ccccc2N1NC(=O)c1ccc(Cl)c(S(N)(=O)=O)c1 (centres undefined) [INDAPAMIDE] | > 133 µM | > 133 µM | > 133 µM | > 133 µM |
| ClC(Cl)(Cl)Cl [CARBON TETRACHLORIDE] | > 133 µM | > 133 µM | > 133 µM | > 133 µM |
| CC(C)(C)c1ccc(C(O)CCCN2CCC(C(O)(c3ccccc3)c3ccccc3)CC2)cc1 (centres undefined) [TERFENADINE] | > 133 µM | > 133 µM | > 133 µM | > 133 µM |
| C[C@H]1C[C@H]2[C@@H]3CCC4=CC(=O)C=C[C@]4(C)[C@@]3(F)[C@@H](O)C[C@]2(C)[C@@]1(O)C(=O)CO [BETAMETHASONE] | > 133 µM | > 133 µM | > 133 µM | > 133 µM |
| O=P1(NCCCl)OCCCN1CCCl (centres undefined) [IFOSFAMIDE] | > 133 µM | > 133 µM | > 133 µM | > 133 µM |
| C=CC1=C(C(=O)O)N2C(=O)[C@@H](NC(=O)/C(=N\OCC(=O)O)c3csc(N)n3)[C@H]2SC1 [CEFIXIME] | > 133 µM | 89.4 µM | > 133 µM | > 133 µM |
| C[C@@H]1C/C=C/C=C/C=C/C=C/[C@H](O[C@@H]2O[C@H](C)[C@@H](O)[C@H](N)[C@@H]2O)C[C@@H]2O[C@](O)(C[C@@H](O)C[C@H]3O[C@@H]3/C=C/C(=O)O1)C[C@H](O)[C@H]2C(=O)O [NATAMYCIN] | > 133 µM | > 133 µM | > 133 µM | > 133 µM |
| CN1C(C(=O)Nc2ccccn2)=C(O)c2sc(Cl)cc2S1(=O)=O [LORNOXICAM] | 7.56 µM | > 133 µM | > 133 µM | > 133 µM |

| SMILES | IC50 [1] | IC50 [2] | IC50 [3] | IC50 [4] |
| --- | --- | --- | --- | --- |
| Cc1ccc(S(=O)(=O)NC(=O)NN2CC3CCCC3C2)cc1 (centres undefined) [GLICLAZIDE] | > 133 µM | > 133 µM | > 133 µM | > 133 µM |
| O=C1CCc2cc(OCCCCc3nnnn3C3CCCCC3)ccc2N1 [CILOSTAZOL] | > 133 µM | > 133 µM | > 133 µM | 16.6 µM |
| Nc1nc(F)nc2c1ncn2[C@@H]1O[C@H](COP(=O)(O)O)[C@@H](O)[C@@H]1O [FLUDARABINE PHOSPHATE] | > 133 µM | > 133 µM | > 133 µM | > 133 µM |
| C=C(C)[C@H]1Cc2c(ccc3c2O[C@@H]2COc4cc(OC)c(OC)cc4[C@@H]2C3=O)O1 [ROTENONE] | 8 µM | > 133 µM | > 133 µM | > 133 µM |
| OCc1cc(C(O)CNCCCCCCOCCCCc2ccccc2)ccc1O (centres undefined) [SALMETEROL XINAFOATE] | > 133 µM | > 133 µM | > 133 µM | > 133 µM |
| CCCCc1ncc(/C=C(\Cc2cccs2)C(=O)O)n1Cc1ccc(C(=O)O)cc1 [EPROSARTAN] | > 133 µM | 57.9 µM | 6.65 µM | > 133 µM |
| CC(C)C(=O)OCC(=O)[C@@]12O[C@H](C3CCCCC3)O[C@@H]1C[C@H]1[C@@H]3CCC4=CC(=O)C=C[C@]4(C)[C@H]3[C@@H](O)C[C@@]12C [CICLESONIDE] | > 133 µM | > 133 µM | > 133 µM | > 133 µM |
| CO/N=C(\C(=O)N[C@@H]1C(=O)N2C(C(=O)O)=C(COC(C)=O)CS[C@H]12)c1csc(N)n1 [CEFOTAXIME SODIUM] | > 133 µM | > 133 µM | > 133 µM | 24 µM |
| CC[C@H]1OC(=O)[C@H](C)[C@@H](O[C@H]2C[C@@](C)(OC)[C@@H](O)[C@H](C)O2)[C@H](C)[C@@H](O[C@@H]2O[C@H](C)C[C@H](N(C)C)[C@H]2O)[C@](C)(OC)C[C@@H](C)C(=O)[C@H](C)[C@@H](O)[C@]1(C)O [CLARITHROMYCIN] | > 133 µM | > 133 µM | > 133 µM | > 133 µM |
| CC1(C)[C@H](C(=O)O)N2C(=O)C[C@H]2S1(=O)=O [SULBACTAM] | > 133 µM | > 133 µM | > 133 µM | > 133 µM |
| CC(=O)Nc1ccc(O)cc1 [ACETAMINOPHEN] | > 133 µM | > 133 µM | > 133 µM | > 133 µM |
| CNNCc1ccc(C(=O)NC(C)C)cc1 [PROCARBAZINE HYDROCHLORIDE] | > 133 µM | > 133 µM | > 133 µM | > 133 µM |
| Cc1cc(NC(=O)C2=C(O)c3ccccc3S(=O)(=O)N2C)no1 [ISOXICAM] | > 133 µM | > 133 µM | > 133 µM | > 133 µM |
| c1ccc2c(c1)OCC(C1=NCCN1)O2 (centres undefined) [IDAZOXAN] | > 133 µM | > 133 µM | > 133 µM | > 133 µM |
| CC(=O)Nc1c(I)c(NC(C)=O)c(I)c(C(=O)O)c1I [DIATRIZOIC ACID] | > 133 µM | > 133 µM | > 133 µM | > 133 µM |
| COc1ccc(C(CN(C)C)C2(O)CCCCC2)cc1 (centres undefined) [VENLAFAXINE] | > 133 µM | > 133 µM | > 133 µM | > 133 µM |
| O=P1(N(CCCl)CCCl)NCCCO1 (centres undefined) [CYCLOPHOSPHAMIDE ANHYDROUS] | > 133 µM | > 133 µM | > 133 µM | > 133 µM |
| C=C1CC[C@H](O)C/C1=C/C=C1\CCC[C@]2(C)[C@@H]([C@H](C)/C=C/[C@H](C)C(C)C)CC[C@@H]12 [ERGOCALCIFEROL] | 75.8 µM | > 133 µM | > 133 µM | > 133 µM |
